The values below come from US20240058264A1, “PHARMACEUTICAL FORMULATIONS OF NINTEDANIB FOR INTRAOCULAR USE” (Boehringer Ingelheim International GmbH, priority 2022, published 2024).

≈ marks a conversion by molar mass, not a printed value.

The data set can be described thus: Water solubility. It is filed as physicochemical.

Regarding `COC(=O)c1ccc2c(c1)NC(=O)/C2=C(\Nc1ccc(N(C)C(=O)CN2CCN(C)CC2)cc1)c1ccccc1` [free base of nintedanib, 3-Z-[1-(4-(N-((4-methyl-piperazin-1-yl)-methylcarbonyl)-N-methyl-amino)-anilino)-1-phenyl-methylene]-6-methoxycarbonyl-2-indolinone], the “solubility in water” value is “very poor”.

By solubility is commonly meant the concentration that dissolves in the medium under given conditions. The low end stands for little dissolved substance, the high end for much dissolved substance. The compound `COC(=O)c1ccc2c(c1)NC(=O)/C2=C(\Nc1ccc(N(C)C(=O)CN2CCN(C)CC2)cc1)c1ccccc1` [nintedanib esylate] had a solubility of 2800 µg/mL (≈ 5.19 mM).
